{
  "source": "paper PMC7913925",
  "about": "“Design and Evaluation of a Polypeptide That Mimics the Integrin Binding Site for EDA Fibronectin to Block Profibrotic Cell Activity” (International Journal of Molecular Sciences, 2021)",
  "molecules": {"B1": {"name": "antifibrotic 38-amino-acid polypeptide (AF38Pep) (designed binder)", "peptide": "VMPYISTTPAKPCTSENCGNSWYGGFKSKNENKIYFIN", "modifications": "disulfide 13-18 (inferred)"}, "B2": {"name": "FN-EDA, a peptide sharing amino acid sequence with the C-C′ loop of EDA-FN (peptide)", "peptide": "TYSSPEDGIHEL", "notes": "12-residue stretch of the C-C′ loop of extra domain A (EDA) of fibronectin; also called fibronectin EDA-peptide; EDA-FN C-C′ loop peptide; source: synthetic peptide (ChinaPeptides)"}},
  "key": {"[1]": {"system": "EDA-FN ECM of TGF-β1-treated fibroblasts", "test": "Epifluorescence assay of AF38Pep-Cy5 binding to fibrotic ECM (IVIS)", "assay_type": "cell-based", "settings": "AF38Pep-Cy5 10 µg/mL", "protocol": "(§1) A solution containing 1:1 molar ratio of AF38Pep to non-sulphated Cy5-NHS-ester (APExBIO, Houston, TX, USA) was incubated overnight in RT, shielded from light and under constant mixing. The following day, the solution was passed through a PD-10 Sephadex G-25 M gel filtration column (GE Healthcare, Chicago, IL, USA) into PBS. The first 3 fractions (highest molecular weight) were collected, dialyzed (membrane MWCO 1 kDa) against ddH2O overnight, and concentrated by vacuum centrifuge at 3000 rpm at 60 °C for 3 h. Fibroblasts were grown to 70% confluence in 12-well tissue culture plates, before growth arrest in serum-free DMEM for 48 h. Cells were then treated with 10 ng/mL TGF-β1 for 0, 24, 48 and 72 h. The conjugated AF38Pep-Cy5 was added to the plate wells at 10 µg/mL and was incubated for 2 h. The culture medium was removed, and cells were washed three times with PBS before replenishment with fresh serum-free DMEM. Any AF38Pep-Cy5 that remained bound to EDA-FN was assessed using an IVIS imaging system (Caliper Life Sciences, PerkinElmer, Hopkinton, MA, USA) set to detect Cy5.5 epifluorescence after excitation at 640 nm. Epifluorescence was quantified using Living Image v4.2 analysis software (Caliper Life Sciences)."}, "[2]": {"system": "fixed ECM of fibroblasts or differentiated myofibroblasts", "test": "AF38Pep-Cy5 labelling of ECM vs FN1 immunostaining", "assay_type": "cell-based", "protocol": "as §1, with “Cells were then treated with 10 ng/mL TGF-β1 for 0, 24, 48 and 72 h. The conjugated AF38Pep-Cy5 was added to the plate wells at 10 µg/mL and was incubated for 2 h. The culture medium was removed, and cells were washed three times with PBS before replenishment with fresh serum-free DMEM.” left out\nCells were grown to 40% confluence in 8-well glass chamber slides (Nunc, Thermo Fisher Scientific), prior to growth arrest and treatment. […] Cells were then mounted in DAPI Fluoromount-G (Thermo Fisher Scientific) and imaged using a Zeiss Axio Imager Z1 UV fluorescence microscope (Zeiss, Jena, Germany) and a Leica TCS SP5 laser scanning confocal microscope (Leica Biosystems, Baden-Württemberg, Germany)."}, "[3]": {"system": "EDA-FN in fixed fibroblast or myofibroblast ECM", "test": "Competitive labelling of fixed matrices, AF38Pep-Cy5 and IST-9", "assay_type": "cell-based", "protocol": "as §1\nCells were grown to 40% confluence in 8-well glass chamber slides (Nunc, Thermo Fisher Scientific), prior to growth arrest and treatment. Cells were washed with PBS before fixation in 4% paraformaldehyde for 10 min at room temperature. Next, cells were permeabilized with 0.1% (v/v) Triton X-100 in PBS for 10 min at room temperature. For visualization of ECM, cells were fixed with 100% ice-cold methanol for 8 min at −20 °C. Slides were washed with PBS and blocked with 1% goat serum (TBD Science, Tianjin, China) for 30 min before washing with 0.1% (w/v) BSA in PBS. […] Cells were then mounted in DAPI Fluoromount-G (Thermo Fisher Scientific) and imaged using a Zeiss Axio Imager Z1 UV fluorescence microscope (Zeiss, Jena, Germany) and a Leica TCS SP5 laser scanning confocal microscope (Leica Biosystems, Baden-Württemberg, Germany)."}, "[4]": {"target": "integrin α4 protein (ITGA4) (not stated (endogenous in fibroblasts; mouse NIH/3T3 and human HFL1 cells were cultured)) (UniProt Q00651)", "sequence (Q00651 41-1039)": "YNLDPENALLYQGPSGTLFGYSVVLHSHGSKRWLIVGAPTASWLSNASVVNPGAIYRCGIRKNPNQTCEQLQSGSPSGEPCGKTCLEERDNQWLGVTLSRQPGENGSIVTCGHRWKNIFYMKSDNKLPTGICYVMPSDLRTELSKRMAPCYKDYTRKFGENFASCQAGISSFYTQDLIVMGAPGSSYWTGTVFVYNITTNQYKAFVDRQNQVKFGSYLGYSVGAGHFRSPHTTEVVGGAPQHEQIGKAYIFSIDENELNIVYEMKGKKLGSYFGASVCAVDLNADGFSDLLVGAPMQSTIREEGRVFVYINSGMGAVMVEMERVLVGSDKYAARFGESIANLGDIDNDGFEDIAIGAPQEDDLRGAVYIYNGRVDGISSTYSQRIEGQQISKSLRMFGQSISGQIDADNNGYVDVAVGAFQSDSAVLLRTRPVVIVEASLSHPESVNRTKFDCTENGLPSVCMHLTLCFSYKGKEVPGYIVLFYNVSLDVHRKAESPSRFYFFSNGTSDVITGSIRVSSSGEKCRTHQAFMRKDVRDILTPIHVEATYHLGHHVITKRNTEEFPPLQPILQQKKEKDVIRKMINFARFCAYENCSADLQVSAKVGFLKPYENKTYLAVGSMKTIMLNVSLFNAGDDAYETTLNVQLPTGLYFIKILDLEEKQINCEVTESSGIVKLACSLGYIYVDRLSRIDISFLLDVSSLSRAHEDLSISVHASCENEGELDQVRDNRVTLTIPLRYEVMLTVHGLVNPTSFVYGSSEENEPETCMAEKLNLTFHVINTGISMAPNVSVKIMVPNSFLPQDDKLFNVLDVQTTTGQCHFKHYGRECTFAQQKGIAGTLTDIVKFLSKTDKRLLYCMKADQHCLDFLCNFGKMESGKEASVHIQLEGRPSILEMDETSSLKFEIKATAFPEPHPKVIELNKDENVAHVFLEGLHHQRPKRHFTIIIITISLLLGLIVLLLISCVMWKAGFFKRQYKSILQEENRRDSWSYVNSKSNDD", "settings": "scale: % of that observed in cells that only received TGF-β1 treatment"}, "[5]": {"target": "T1, FN-EDA, a peptide sharing amino acid sequence with the C-C′ loop of EDA-FN", "T1 peptide": "TYSSPEDGIHEL", "test": "ITC"}, "[6]": {"target": "T1, FN-EDA, a peptide sharing amino acid …", "test": "ITC"}, "[7]": {"target": "T2, antifibrotic 38-amino-acid polypeptide (AF38Pep) (disulfide bridge between the two cysteines)", "T2 construct": "two stretches derived from integrins β1 and α4, linked by a serine; Design contains the ISTTPAK motif of integrin β1/β7 and the KNENKI motif of integrin α4; source: synthetic peptide (ChinaPeptides)", "T2 peptide": "B1 peptide", "test": "ITC; 15 µM AF38Pep in the chamber well, 300 µM small peptide in the injection needle; 25 °C; HEPES buffered saline (140 mM NaCl, 1.5 mM Na2HPO4, 50 mM HEPES; pH 7); MicroCal iTC200; one set of sites model with number of binding sites assumed to be 1", "settings": "both partners purified"}},
  "note": "Bridges are numbered along the chain shown (N, C = ends). Where no end group is shown, it is not given here.",
  "data": [
    {"molecule": "AF38Pep-Cy5: AF38Pep conjugated to Cy5 dye (non-sulphated Cy5-NHS-ester) (VMPYISTTPAKPCTSENCGNSWYGGFKSKNENKIYFIN; disulfide 13-18 (inferred); also: Cy5 label, site not given here)", "values": [
      {"measurement": "binding to fibrotic ECM with TGF-β1 treatment time", "setting": "[1]; TGF-β1 10 ng/mL for 24, 48, 72 h", "value": "increased binding of AF38Pep to the fibrotic ECM, which correlated with the increasing time of TGF-β1 treatment"},
      {"measurement": "binding at 48 h vs 0 h TGF-β1 treatment", "setting": "[1]; mean ± S.E., three experiments", "value": "significant increases in binding at 48 h"},
      {"measurement": "AF38Pep-Cy5 colocalization with FN1 staining, myofibroblast ECM", "setting": "[2]; differentiated myofibroblasts", "value": "colocalization with anti-FN1 staining (yellow) was prominent in areas of fibronectin deposition at cell membranes"},
      {"measurement": "AF38Pep-Cy5 staining of fibroblast ECM", "setting": "[2]; untreated control fibroblasts", "value": "little to no staining"},
      {"measurement": "staining of fibroblast matrices, IST-9 or AF38Pep-Cy5", "setting": "[3]; fibroblasts, regardless of the order of addition", "value": "minimal, regardless of the order of addition to cells"},
      {"measurement": "blocking of IST-9 staining by AF38Pep-Cy5 pretreatment", "setting": "[3]; myofibroblasts, AF38Pep-Cy5 first, then IST-9", "value": "pre-treatment blocked IST-9 staining"},
      {"measurement": "labelling of EDA-FN after IST-9 pretreatment", "setting": "[3]; myofibroblasts, IST-9 first, then AF38Pep-Cy5", "value": "failed to label the elevated EDA-FN production"}
    ]},
    {"molecule": "extra domain A containing fibronectin (EDA-FN) (from UniProt P11276 33-2477) (natural protein)", "values": [
      {"measurement": "total collagen synthesis (hydroxyproline assay) of NIH/3T3 cells after 48 h of TGF-β1 with AF38Pep as blocker, relative to TGF-β1 alone", "setting": "[4]", "value": 60}
    ]},
    {"molecule": "B1", "values": [
      {"measurement": "Kd", "setting": "[5]", "value": 858, "unit": "nM"},
      {"measurement": "Ka", "setting": "[6]", "value": "1.11e+06", "unit": "M⁻¹"}
    ]},
    {"molecule": "B2", "values": [
      {"measurement": "binding result", "setting": "[7]", "value": "binds"}
    ]}
  ]
}
